Values quoted from earlier work as cited in patent US20030055013A1, “HCV combination therapy” (SCHERING CORPORATION, priority 2001, published 2003).

What was measured:
[1] = per 1 mg (Goodman & Gilman)
[2] = system: HIV patients; settings: higher doses, PO, Phase I/II clinical trials (PharmaProjects)
[3] = monotherapy, patients with chronic hepatitis C, prior studies
[4] = system: chronic childhood cholestasis; settings: 20-25 IU/kg/day (Sokool et al.)
[5] = stored between 2° and 8° C. and used within 24 hours of reconstitution

| Compound | potency of 1 mg in IU of Vitamin E [1] | also measured |
| --- | --- | --- |
| CC(=O)Oc1c(C)c(C)c2c(c1C)CC[C@@](C)(CCC[C@H](C)CCC[C@H](C)CCCC(C)C)O2 (racemic) [dl-alpha tocopheryl acetate] | one | – |
| CC(C)(Sc1cc(C(C)(C)C)c(O)c(C(C)(C)C)c1)Sc1cc(C(C)(C)C)c(O)c(C(C)(C)C)c1 [Panavia, 4,4′-isopropylidenedithiobis-2,6-di-t-butylphenol] | – | CD4 levels [2]: stablized or slightly stabilized |
| NC(=O)c1ncn([C@@H]2O[C@H](CO)[C@@H](O)[C@H]2O)n1 [Ribavirin, ribavirin] | – | patients with reduction in hemoglobin of greater than 4 g/dL [3]: 15.7 % of patients |
| Cc1c(C)c2c(c(C)c1O)CC[C@@](C)(CCC[C@H](C)CCC[C@H](C)CCCC(C)C)O2 [d-alpha tocopherol] | 1.49 IU | – |
| CC(=O)Oc1c(C)c(C)c2c(c1C)CC[C@@](C)(CCC[C@H](C)CCC[C@H](C)CCCC(C)C)O2 [d-alpha tocopheryl acetate] | 1.36 IU | – |
| Cc1c(C)c2c(c(C)c1OC(=O)CCC(=O)O)CC[C@@](C)(CCC[C@H](C)CCC[C@H](C)CCCC(C)C)O2 [d-alpha tocopheryl succinate] | 1.21 IU | – |
| d-alpha-tocopheryl polyethylene glycol 1000 succinate [Vitamin E-TPGS] | – | safety and efficacy in chronic childhood cholestasis [4]: safe and effective |
| interferon alfa | – | stability of reconstituted aqueous solutions [5]: stable |
